Measured values reported in patent publication US7829555B1, “Drug targeting” (The University of Manchester, priority 1997, dated 2010).

Legend:
[1] = Pharmacokinetics of the indoloquinone-acetyl salicylic acid conjugate in carrageenin air pouch rats (HPLC of blood, exudate, urine); assay type: in vivo, male Wistar albino rats; conditions: rats with carrageenin air pouch, 20 mg conjugate injected, exudate and urine collected after 2 or 4 hours
Procedure: Pharmacokinetics of the indoloquinone-acetyl salicylic acid conjugate of Example 5 were studied as follows:
Three groups of male Wistar albino rats (n=5) received sterile air dorsally (day 1). After two days a further 20 ml sterile air were administered. On day 5, 2 ml of a 1% carrageenin in sterile saline was injected directly into the air pouch. Animals were housed in metabolic cages. 100 mg of the indoloquinone-aspirin conjugate of Example 5 were suspended in ethanol (2 ml). 50 mg acetyl salicylic acid was dissolved in 2 ml ethanol. 2 ml ethanol was used as a control. 18 ml sterile water were added to each sample. On day 9, each animal was injected with 4 ml of solution as follows: Group A—20 mg indoloquinone-aspirin conjugate Group B—10 mg acetyl salicylic acid Group C—ethanol (control) The animals were then returned to their cages for periods of either 2 (nos. 1, 2 and 3 from each group) or 4 hours (nos. 4 and 5 from each group). After this time the animals were anaesthetized and blood and exudate collected. Available urine was also collected.

[2] = Reduction initiated release of aspirin, product analysis (HPLC) following γ-radiolysis; assay type: physicochemical; conditions: reduction by (CH3)2C.OH radical; N2O-saturated solution, quinone 100 μM, 2-propanol 8.3M (50%, v/v), pH 7.4
Procedure: The reduction initiated release of aspirin from the indoloquinone-acetyl salicylic acid conjugate of Example 5 was investigated by product analysis (HPLC) following γ-radiolysis of N2O-saturated solutions containing the quinone (100 μM) and 2-propanol (8.3M, 50%, v/v) at pH 7.4.
The radiation chemical yield (G) of the (CH3)2C.OH radical in N2O-saturated 2-propanol/water mixtures was determined by ferricyanide reduction to be G((CH3)2C.OH)=0.67±0.02 μmol J^−1 in 2-propanol/water (50%, v/v) and 0.72±0.03 μmol J^−1 in 1 M 2-propanol respectively. […] Loss of the parent quinone (G(−Q)=1.63±0.01 μmol J^−1) parallel the formation of the aspirin leaving group (LG) with G(LG)=1.40±0.15 μmol J^−1.
Indolequinone solutions were saturated with N2O gas in gas-tight vials before irradiation in a ^60Co source. […] A dose rate of 6-6.5 Gy min^−1 was used, as determined by Fricke dosimetry and radiation chemical yields were corrected for the absorbed dose in the various alcohol-water mixtures employed.
Product analysis following γ-radiolysis was performed by gradient HPLC separation on a 100 mm×4.6 mm base-deactivated reverse-phase column (Hichrom RPB, Hichrom, Reading, U.K.). […] Detection was at 232 nm using a Waters 486 detector (Watford, U.K.) and concentrations were determined from peak areas using Waters Maxima software.

## COC1=CC(=O)c2c(c(COC(=O)c3ccccc3OC(C)=O)c(C)n2C)C1=O [Example 5, 3-(2-Acetoxybenzoyloxy)methyl-1,2-dimethyl-5-methoxyindole-4,7-dione]
[1]
  Cleavage of conjugate in collected samples (HPLC): cleaved to liberate acetyl salicylic acid
[2]
  Formation of the aspirin leaving group, radiation chemical yield G(LG): 1.40 ± 0.15 µmol/J
  Loss of the parent quinone, radiation chemical yield G(−Q): 1.63 ± 0.01 µmol/J
